Laboratory results published in article PMC7377239, “Cardiovascular Effects of Polychlorinated Biphenyls and Their Major Metabolites” (Environmental Health Perspectives, 2020).
Read-outs that look alike come from different tables or passages of the source.

How the values were obtained:
[1] = system: iCell cardiomyocytes (human iPSC-derived cardiomyocytes); assay: High-content imaging of cytotoxicity and mitochondrial integrity in iPSC-CMs; format: cell-based; details: Homo sapiens; for viability at 0.01 µM / activity at 0.01 µM / viability at 0.1 µM / activity at 0.1 µM / viability at 1 µM / activity at 1 µM / viability at 10 µM / activity at 10 µM / viability at 100 µM / activity at 100 µM: 0.00 µM = 100.00; for viability at 0.1 µM / activity at 0.1 µM: 0.10 µM
Outline: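 Cardiomyocytes grown on gelatinized 384-well plates received fresh medium on the experiment day and were then exposed to chemicals at 0.01–100μM. Nuclei and mitochondria were labeled with Hoechst 33342 and MitoTracker™ Orange, then fixed, and imaged on an ImageXpress® Micro Confocal system. Four-parameter logistic concentration–response fits in R, with a one-standard-deviation vehicle cutoff, gave point-of-departure values.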

[2] = system: iPSC-CMs, iPSC-ECs and HUVECs phenotypes; assay: ToxPi 2.0 integration of POD values and physicochemical descriptors; design: species or system human; details: ToxPi-scaled (0-1) score
Source text: Phenotypic responses were quantitatively assessed using concentration–response modeling as detailed elsewhere ([Sirenko et al. 2017]). Briefly, phenotypic readouts were normalized to vehicle controls and fit to a four-parameter logistic model in R studio software (version 3.1.1; R Development Core Team). Following EPA guidance on dose–response modeling, a cutoff of one standard deviation across means of vehicle control (i.e., 0.5% vol/vol DMSO in cell culture media) wells was applied to determine the point-of-departure (POD) values ([U.S. EPA 2012]). In the absence of a concentration–response, the highest tested concentration (i.e., 100μM ) was assigned as “no observable adverse effect level.” The concentration–response assessment R script, as well as templates for vehicle and concentration–response data, are available as a supplement to Sirenko et al. ([2017]). The ability of physicochemical properties to predict differences in PODs were evaluated by multiregression and mixed-effects modeling using R.
POD values were then integrated using ToxPi 2.0 ([Marvel et al. 2018]) software. In ToxPi, each slice is representative of cell type– and time-point–specific phenotypes. The area of each slice is proportional to the relative value (e.g., bioactivity or physicochemical descriptor value) of the chemical within the data set. ToxPi scores were used to rank PCBs and their metabolites according to their overall bioactivity and to determine variability in total observable biological responses and chemical characteristics for each major metabolite class and chlorination status (mono-, hexa-chlorinated). Additional visualizations such as dumbbell and principal components analysis plots were generated in R Studio (version 1.1.456; R version 3.5.1; R Development Core Team) using the ggplot2 package.

[3] = Cardiomyocyte, 1.5 h, read-out: cm.cam.90min
[4] = Cardiomyocyte, 1.5 h, read-out: cm.mii.90min
[5] = Cardiomyocyte, 1.5 h, read-out: cm.mito.90min
[6] = Cardiomyocyte, 1.5 h, read-out: cm.tc.90min
[7] = Cardiomyocyte, 24 h, read-out: cm.cam.24hrs
[8] = Cardiomyocyte, 24 h, read-out: cm.mii.24hrs
[9] = Cardiomyocyte, 24 h, read-out: cm.mito.24hrs
[10] = Cardiomyocyte, 24 h, read-out: cm.tc.24hrs
[11] = iPSC endothelial cells, tube formation, 18 h

SMILES: O=C1C=CC(=O)C(c2ccc(Cl)cc2)=C1 [4-Cl-BQ, 2-(4-Chlorophenyl)benzo-2,5-quinone]
- viability at 0.01 µM [1, 3]: 103%
- activity at 0.01 µM [1, 4]: 106%
- activity at 0.01 µM [1, 5]: 103%
- viability at 0.01 µM [1, 6]: 103%
- viability at 0.1 µM [1, 3]: 96.5%
- activity at 0.1 µM [1, 4]: 116%
- activity at 0.1 µM [1, 5]: 95.9%
- viability at 0.1 µM [1, 6]: 96.2%
- viability at 1 µM [1, 3]: 100%
- activity at 1 µM [1, 4]: 117%
- activity at 1 µM [1, 5]: 100%
- viability at 1 µM [1, 6]: 100%
- viability at 10 µM [1, 3]: 103%
- activity at 10 µM [1, 4]: 91.5%
- activity at 10 µM [1, 5]: 102%
- viability at 10 µM [1, 6]: 103%
- viability at 100 µM [1, 3]: 29.9%
- activity at 100 µM [1, 4]: 8.08%
- activity at 100 µM [1, 5]: 0.09%
- viability at 100 µM [1, 6]: 100%
- minimal effective concentration ([1]; Cardiomyocyte, 1.5 h, cardiomyocytes (cm), cam, 90 min, read-out: POD cm.cam.90min): 37.6 µM
- minimal effective concentration ([1]; Cardiomyocyte, 1.5 h, cardiomyocytes (cm), mii, 90 min, read-out: POD cm.mii.90min): 9.33 µM
- minimal effective concentration ([1]; Cardiomyocyte, 1.5 h, cardiomyocytes (cm), mito, 90 min, read-out: POD cm.mito.90min): 38.7 µM
- minimal effective concentration ([1]; Cardiomyocyte, 1.5 h, cardiomyocytes (cm), tc, 90 min, read-out: POD cm.tc.90min): 100 µM
- viability at 0.01 µM [1, 7]: 92.6%
- activity at 0.01 µM [1, 8]: 100%
- activity at 0.01 µM [1, 9]: 89.4%
- viability at 0.01 µM [1, 10]: 92.8%
- viability at 0.1 µM [1, 7]: 98.4%
- activity at 0.1 µM [1, 8]: 110%
- activity at 0.1 µM [1, 9]: 96.5%
- viability at 0.1 µM [1, 10]: 99.1%
- viability at 1 µM [1, 7]: 105%
- activity at 1 µM [1, 8]: 97.3%
- activity at 1 µM [1, 9]: 103%
- viability at 1 µM [1, 10]: 105%
- viability at 10 µM [1, 7]: 51.1%
- activity at 10 µM [1, 8]: 128%
- activity at 10 µM [1, 9]: 50.9%
- viability at 10 µM [1, 10]: 50.4%
- viability at 100 µM [1, 7]: 66.6%
- activity at 100 µM [1, 8]: 0.9%
- activity at 100 µM [1, 9]: 0.05%
- viability at 100 µM [1, 10]: 100%
- minimal effective concentration ([1]; Cardiomyocyte, 24 h, cardiomyocytes (cm), cam, 24 hrs, read-out: POD cm.cam.24hrs): 0.06 µM
- minimal effective concentration ([1]; Cardiomyocyte, 24 h, cardiomyocytes (cm), mii, 24 hrs, read-out: POD cm.mii.24hrs): 46.4 µM
- minimal effective concentration ([1]; Cardiomyocyte, 24 h, cardiomyocytes (cm), mito, 24 hrs, read-out: POD cm.mito.24hrs): 3.85 µM
- minimal effective concentration ([1]; Cardiomyocyte, 24 h, cardiomyocytes (cm), tc, 24 hrs, read-out: POD cm.tc.24hrs): 100 µM
- minimal effective concentration ([1]; iPSC-CM, 1.5 h, iPSC-CM, read-out: cm.cam.90min POD): 37.6 µM
- minimal effective concentration ([1]; iPSC-CM, 1.5 h, iPSC-CM, read-out: cm.mii.90min POD): 9.33 µM
- minimal effective concentration ([1]; iPSC-CM, 1.5 h, iPSC-CM, read-out: cm.mito.90min POD): 38.7 µM
- minimal effective concentration ([1]; iPSC-CM, 1.5 h, iPSC-CM, read-out: cm.tc.90min POD): 100 µM
- minimal effective concentration ([1]; iPSC-CM, 24 h, iPSC-CM, read-out: cm.cam.24hrs POD): 0.06 µM
- minimal effective concentration ([1]; iPSC-CM, 24 h, iPSC-CM, read-out: cm.mii.24hrs POD): 46.4 µM
- minimal effective concentration ([1]; iPSC-CM, 24 h, iPSC-CM, read-out: cm.mito.24hrs POD): 3.85 µM
- minimal effective concentration ([1]; iPSC-CM, 24 h, iPSC-CM, read-out: cm.tc.24hrs POD): 100 µM
- huvec.cyto.24hr ([2]; HUVECs, 24 h): 1
- huvec.mito.24hr ([2]; HUVECs, 24 h): 0.8466
- huvec.mitoint.24hr ([2]; HUVECs, 24 h): 0.9878
- huvec.nma.24hr ([2]; HUVECs, 24 h): 0.6676
- huvec.tc.24hr ([2]; HUVECs, 24 h): 1
- huvec.mtl.18hr ([2]; HUVECs, tube formation, 18 h): 0.9933
- huvec.tlps.18hr ([2]; HUVECs, tube formation, 18 h): 0.5585
- huvec.tta.18hr ([2]; HUVECs, tube formation, 18 h): 1
- huvec.ttl.18hr ([2]; HUVECs, tube formation, 18 h): 0.8997
- cm.amp.avg.90min ([2]; iPSC cardiomyocytes, 90 min): 0.3159
- cm.amp.cv.90min ([2]; iPSC cardiomyocytes, 90 min): 0.2492
- cm.bpm.90min ([2]; iPSC cardiomyocytes, 90 min): 0.1564
- cm.cam.90min ([2]; iPSC cardiomyocytes, 90 min): 0.4034
- cm.decay.rise.90min ([2]; iPSC cardiomyocytes, 90 min): 0.215
- cm.mii.90min ([2]; iPSC cardiomyocytes, 90 min): 0.8851
- cm.mito.90min ([2]; iPSC cardiomyocytes, 90 min): 0.387
- cm.spacing.cv.90min ([2]; iPSC cardiomyocytes, 90 min): 0.3114
- cm.tc.90min ([2]; iPSC cardiomyocytes, 90 min): 0
- cm.amp.avg.24hrs ([2]; iPSC cardiomyocytes, 24 h): 0.3257
- cm.amp.cv.24hrs ([2]; iPSC cardiomyocytes, 24 h): 0.3094
- cm.bpm.24hrs ([2]; iPSC cardiomyocytes, 24 h): 0.6578
- cm.cam.24hrs ([2]; iPSC cardiomyocytes, 24 h): 1
- cm.decay.rise.24hrs ([2]; iPSC cardiomyocytes, 24 h): 0.8647
- cm.mii.24hrs ([2]; iPSC cardiomyocytes, 24 h): 0.2031
- cm.mito.24hrs ([2]; iPSC cardiomyocytes, 24 h): 0.702
- cm.spacing.cv.24hrs ([2]; iPSC cardiomyocytes, 24 h): 0.7459
- cm.tc.24hrs ([2]; iPSC cardiomyocytes, 24 h): 0
- endo.cyto.24hr ([2]; iPSC endothelial cells, 24 h): 0.5702
- endo.mito.24hr ([2]; iPSC endothelial cells, 24 h): 0.5702
- endo.mitoint.24hr ([2]; iPSC endothelial cells, 24 h): 0.2683
- endo.nma.24hr ([2]; iPSC endothelial cells, 24 h): 0.3599
- endo.tc.24hr ([2]; iPSC endothelial cells, 24 h): 0.6463
- endo.mtl.18hr [2, 11]: 0.5822
- endo.tlps.18hr [2, 11]: 0.7309
- endo.tta.18hr [2, 11]: 0.1339
- endo.ttl.18hr [2, 11]: 0.1969
